Here are results for 14 compounds from patent publication US7777070B2, “Acyloxyalkyl carbamate prodrugs of tranexamic acid, methods of synthesis and use” (XenoPort, Inc., priority 2005, dated 2010).

The subject of one data set is Caco-2 cells. The experiment in a line: Caco-2 cellular permeability. As to conditions: ratio of Papp apical to basolateral / basolateral to apical. In general terms: Passage across Caco-2 layers is used to estimate intestinal permeability.
The conditions of data set [1]: women suffering from idiopathic menorrhagia; cited from earlier work.
The conditions of data set [2]: human patients, oral; cited from earlier work.
Data set [3] in a line: Pharmacokinetics of tranexamic acid after administration of tranexamic acid or prodrug to rats. The format is in vivo, Sprague-Dawley rats. As to conditions: for F* (bioavailability of tranexamic acid) / Cmax / AUCinf / AUCt / T1/2-λ / Tmax: rat, mean (SD); for F* (bioavailability of tranexamic acid): versus i.v. tranexamic acid AUCinf 22.2 hr·μg/mL; for Cmax / AUCinf / AUCt / T1/2-λ / Tmax: tranexamic acid in blood. As for the experimental part: Tranexamic acid or a tranexamic acid prodrug of the present disclosure was administered as an intravenous bolus injection (i.v.), by oral gavage (p.o.), or by intracolonic (i.c.) administration via an indwelling catheter in the ascending colon to groups of four to six adult male Sprague-Dawley rats (weight approximately 250 g). Animals were fasted overnight before the study and for 4 hours post-dosing and were conscious at the time of the experiment. When administered intravenously, tranexamic acid was administered as a solution in water at a dose equivalent to 16 mg (0.1 mmol) of tranexamic acid per kg body weight. Prodrugs were orally or intracolonically administered as a suspension in 0.5% methyl cellulose in 0.1% Tween 80 at a dose equivalent to 16 mg (0.1 mmol) of tranexamic acid per kg body weight. Blood samples (300 μL) were obtained via a jugular vein cannula at intervals over 8 hours after oral dosing. Blood was quenched immediately using methanol and then was frozen at −80° C. until analyzed.
The following procedure was used to prepared blood samples for analysis:
1. Rat blood (100 μL) was collected at different times into K2EDTA tubes, 300 μL of methanol, and the mixture was vortexed to mix the ingredients.
2. Blank rat blood (90 μL) was quenched with 300 μL of methanol. Then ten μL of a standard stock solution (0.04, 0.2, 1, 5, 25, and 100 μg/mL) were added to the tube individually. Then 20 μL of p-chlorophenylalanine (5 μg/mL in 50% methanol) was added to each tube to make up a final calibration standard (0.004, 0.02, 0.1, 0.5, 2.5, and 10 μg/mL). The samples were vortexed and centrifuged at 14,000 rpm for 20 min.
3. To the quenched blood samples were added 20 μL of p-chlorophenylalanine (5 μg/mL in 50% methanol), the samples were vortexed and centrifuged at 14,000 rpm for 20 min.
4. The supernatant was analyzed by LC/MS/MS.
The following method was used for LC/MS/MS Analysis of the prepared blood samples. An API 4000 or 2000 LC/MS/MS spectrometer equipped with Agilent 1100 binary pumps and a CTC HTS-PAL autosampler were used in the analysis. A ThermoHypersil-BetaSil C18, 100×4.6 mm, 5 μm column was used during the analysis. The mobile phase for the analysis of tranexamic acid and prodrug was (A) 0.1% formic acid in water, and (B) 0.1% formic acid in acetonitrile. The gradient condition was: 2% eluent-B to 95% eluent-B for 2.5 min, then to 98% eluent-B to 4.0 min. At 4.1 min, it was returned to 2% eluent-B and maintained at 2% eluent-B till 6.0 min. The flow rate was 1 mL/min. An ESI source was used on the API 4000. The analysis of tranexamic acid was performed in positive ion mode for and negative ion mode was used for analysis of tranexamic acid prodrugs.
The MRM transition for each analyte was optimized using standard solutions. 20 μL of the sample was injected. Non-compartmental analysis was performed using WinNonlin (v.3.1 Professional Version, Pharsight Corporation, Mountain View, Calif.) on individual animal profiles. Summary statistics on major parameter estimates was performed for Cmax (peak observed concentration following dosing), Tmax (time to maximum concentration is the time at which the peak concentration was observed), AUC(0-t) (area under the serum concentration-time curve from time zero to last collection time, estimated using the log-linear trapezoidal method), AUC(0-∞), (area under the serum concentration time curve from time zero to infinity, estimated using the log-linear trapezoidal method to the last collection time with extrapolation to infinity), and t1/2 (terminal half-life).
The oral or intracolonic bioavailability (F) of tranexamic acid was determined by comparing the area under the tranexamic acid concentration vs. time curve (AUC) following oral or intracolonic administration of tranexamic acid or prodrug with the AUC of the tranexamic acid concentration vs. time curve following intravenous administration of tranexamic acid on a dose normalized basis. […]

The mark [4] stands for this setting: i.c., dose equivalent to 16 mg/kg.
Setting [5] is: p.o., dose equivalent to 16 mg/kg.

The structures appear in SMILES notation.

Method for Caco-2 cells: For example, passive permeability can be evaluated by examining the flux of a prodrug across a cultured polarized cell monolayer (e.g., Caco-2 cells).
Caco-2 cells obtained from continuous culture (passage less than 28) were seeded at high density onto Transwell polycarbonate filters. Cells were maintained with DMEM/10% fetal bovine serum, 1 mM nonessential amino acids, and 6 mM L-Gln, 5% CO2/95% O2, at 37° C. until the day of the experiment. Permeability studies were conducted at pH 6.5 apically (in 50 mM MES buffer containing 1 mM CaCl2, 1 mM MgCl2, 150 mM NaCl, 3 mM KCl, 1 mM NaH2PO4, 5 mM glucose) and pH 7.4 basolaterally (in Hanks' balanced salt solution containing 10 mM HEPES) in the presence of efflux pump inhibitors (250 μM MK-571 and 250 μM Verapamil). Inserts were placed in 12 or 24 well plates containing buffer and incubated for 30 min at 37° C. Prodrug (200 μM) was added to the apical or basolateral compartment (donor) and concentrations of prodrug and/or released parent drug in the opposite compartment (receiver) were determined at intervals over 1 hour using LC/MS/MS. Values of apparent permeability (Papp) were calculated using the equation: Papp=Vr(dC/dt)//(ACo) where Vr is the volume of the receiver compartment in mL; dC/dt is the total flux of prodrug and parent drug (μM/sec), determined from the slope of the plot of concentration in the receiver compartment versus time; C0 is the initial concentration of prodrug in μM; and A is the surface area of the membrane in cm^2.

Turning to `CCCC(=O)OC(C)OC(=O)NC[C@H]1CC[C@H](C(=O)O)CC1` (relative stereo) [Compound 10, trans-4-{[1-(Butanoyloxy)ethoxycarbonyl]aminomethyl}-Cyclohexanecarboxylic Acid], in the data set with Caco-2 cells, the “Ratio A-B/B-A” value is on record as 4.9.
For the compound `CCCC(OC(=O)NC[C@H]1CC[C@H](C(=O)O)CC1)OC(=O)C(C)C` (relative stereo) [Compound 36, trans-4-{[1-(2-Methylpropanoyloxy)butoxycarbonyl]aminomethyl}-Cyclohexanecarboxylic Acid], the “Ratio A-B/B-A” value with Caco-2 cells came out at 4.5.
The same measure, in the same setting: the figure for `CCCCC(=O)OC(OC(=O)NC[C@H]1CC[C@H](C(=O)O)CC1)C(C)C` (relative stereo) [Compound 42, trans-4-{[1-(Pentanoyloxy)-2-methylpropoxycarbonyl]aminomethyl}-Cyclohexanecarboxylic Acid] is 2.9.
Still for that read-out and setting: the figure for `CC(C)C(OC(=O)NC[C@H]1CC[C@H](C(=O)O)CC1)OC(=O)C1CCCCC1` (relative stereo) [Compound 48, trans-4-{[1-(Cyclohexylcarbonyloxy)-2-methylpropoxycarbonyl]aminomethyl}-Cyclohexanecarboxylic Acid] is 3.1; for `CC(C)C(OC(=O)NC[C@H]1CC[C@H](C(=O)O)CC1)OC(=O)c1ccccc1` (relative stereo) [Compound 49, trans-4-{[1-(Benzoyloxy)-2-methylpropoxycarbonyl]aminomethyl}-Cyclohexanecarboxylic Acid] it is 2.9.
Take `CCOC(=O)OC(C)OC(=O)[C@H]1CC[C@H](CN)CC1` (relative stereo) [Kabi 2161, 1-(ethoxycarbonyl)oxyethyl trans-4-(aminomethyl)-cyclohexanecarboxylate]: in data set [1], the “effect on menstrual blood loss” value is recorded as “effective in reducing menstrual blood loss”. Besides, the “oral bioavailability of tranexamic acid from prodrug” value in data set [2] was “markedly improved”.
On to `CC(C)CC(=O)OC(C)OC(=O)NC[C@H]1CC[C@H](C(=O)O)CC1` (single isomer, unassigned) [Compound 19, trans-4-{[1-(3-Methylbutanoyloxy)ethoxycarbonyl]aminomethyl}-Cyclohexanecarboxylic Acid], for which the “Ratio A-B/B-A” value with Caco-2 cells is 5.2.
Same read-out and setting: the figure for `CC(OC(=O)NC[C@H]1CC[C@H](C(=O)O)CC1)OC(=O)c1ccccc1` (single isomer, unassigned) [Compound 23, trans-4-{[1-(Benzoyloxy)ethoxycarbonyl]aminomethyl}-Cyclohexanecarboxylic Acid] is 4.5.
For `CC(C)C(=O)OC(OC(=O)NC[C@H]1CC[C@H](C(=O)O)CC1)C(C)C` (single isomer, unassigned) [Compound 44, trans-4-{[1-(2-Methylpropanoyloxy)-2-methylpropoxycarbonyl]aminomethyl}-Cyclohexanecarboxylic Acid], the “Ratio A-B/B-A” value with Caco-2 cells stood at 2.2.
Take `CC(C)C(=O)OCOC(=O)NC[C@H]1CC[C@H](C(=O)O)CC1` [Compound 4, trans-4-{[(2-Methylpropanoyloxy)methoxycarbonyl]aminomethyl}-Cyclohexanecarboxylic Acid]: the “Ratio A-B/B-A” value with Caco-2 cells came out at 7.7.
Same read-out and setting: the figure for `O=C(NC[C@H]1CC[C@H](C(=O)O)CC1)OCOC(=O)c1ccccc1` [Compound 7, trans-4-{[(Benzoyloxy)methoxycarbonyl]aminomethyl}-Cyclohexanecarboxylic Acid] is 4.2.
For the compound `CC(OC(=O)NC[C@H]1CC[C@H](C(=O)O)CC1)OC(=O)C(C)C` (stereo partly drawn) [Compound 13, trans-4-{[1-(2-Methylpropanoyloxy)ethoxycarbonyl]-aminomethyl}-Cyclohexanecarboxylic Acid], the “Ratio A-B/B-A” value with Caco-2 cells came out at 4.8. Also, in data set [3] (i.c.), the “F* (bioavailability of tranexamic acid)” value is 98 (10) %. Further, in data set [3] (intact prodrug in blood, oral gavage, rat (FIG. 2)), the “levels of prodrug following oral gavage administration” value is “below the level of detection”. In addition, the “F* (bioavailability of tranexamic acid)” value in data set [3] (p.o.) is listed as 73 (9) %. In addition, the Cmax in data set [3] (i.c. (intracolonic), dose equivalent to 16 mg/kg) is 7.82 (5.2) μg/mL. Also, in data set [3] (setting [4]), the AUCinf was determined as 21.8 µg·h/mL, the AUCt is 21.5 (2.3) hr · μg/mL, the T1/2-λ was 4.2 (0.8) h and the Tmax was 0.5 (0.1) h. In addition, in data set [3] (p.o., dose equivalent to 16 mg tranexamic acid per kg), the Cmax was 5.64 (0.58) μg/mL. Besides, in data set [3] (setting [5]), the AUCinf is 17.1 (2.0) hr · μg/mL, the AUCt is 15.7 (2.0) hr · μg/mL, the T1/2-λ is listed as 2.2 (0.2) h and the Tmax is listed as 0.8 (0.3) h.
With `CC(C)C(=O)O[C@H](C)OC(=O)NC[C@H]1CC[C@H](C(=O)O)CC1` [Compound 15, (+)-trans-4-({[(S)-1-(2-Methylpropanoyloxy)ethoxy]carbonylamino}methyl)-Cyclohexanecarboxylic Acid], in the data set on Caco-2 cells, the “Ratio A-B/B-A” value is recorded as 6.1.
With `CC(C)C(=O)O[C@@H](C)OC(=O)NC[C@H]1CC[C@H](C(=O)O)CC1` [Compound 17, (−)-trans-4-({[(1R)-1-(2-Methylpropanoyloxy)ethoxy]carbonylamino}methyl)-Cyclohexanecarboxylic Acid], the “Ratio A-B/B-A” value with Caco-2 cells was 4.0.
